PubChem BioAssay AID248 (DTP/NCI, 2004)
Where “and” joins values, the source holds several entries; their conditions need not be identical. Identical values can stand only once. Toxic doses and inconclusive results are not listed.

Tested on: L1210 leukemia ip in BDF1 mice, survival T/C
Assay: NCI In Vivo Anticancer Drug Screen. Data for tumor model L1210 Leukemia (intraperitoneal) in B6D2F1 (BDF1) mice
Settings: endpoint: mean survival time, higher = longer survival
Summary of the method: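 Each compound was tested against a transplantable tumor grown in mice. The endpoint was survival, with treated animals benchmarked against vehicle controls as a simple ratio.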

[1] = dose: 100.0 mg/kg/injection, schedule: Q04DX003 (ip), vehicle: saline with Tween-80
[2] = dose: 200.0 mg/kg/injection, schedule: Q04DX003 (ip), vehicle: saline with Tween-80
[3] = dose: 400.0 mg/kg/injection, schedule: Q04DX003 (ip), vehicle: saline with Tween-80
[4] = dose: 100.0 mg/kg/injection, schedule: Q01DX009 (ip), vehicle: Klucel (hydroxypropylcellulose) (HPC)
[5] = dose: 200.0 mg/kg/injection, schedule: Q01DX009 (ip), vehicle: Klucel (hydroxypropylcellulose) (HPC)
[6] = dose: 100.0 mg/kg/injection, schedule: Q04DX002 (ip), vehicle: saline
[7] = dose: 200.0 mg/kg/injection, schedule: Q04DX002 (ip), vehicle: saline
[8] = dose: 400.0 mg/kg/injection, schedule: Q04DX002 (ip), vehicle: saline
[9] = dose: 100.0 mg/kg/injection, schedule: Q01DX009 (ip), vehicle: saline
[10] = dose: 400.0 mg/kg/injection, schedule: Q01DX009 (ip), vehicle: saline

`CCCCN(CCCC)C(=O)c1ccccc1C(=O)O` was tested, and the T/C (dose: 75.0 mg/kg/injection, schedule: Q01DX001 (ip), vehicle: saline) was 95 % of control, the T/C (dose: 100.0 mg/kg/injection, schedule: Q04DX002 (ip), vehicle: Klucel (hydroxypropylcellulose) (HPC)) was 95 % of control and the T/C (dose: 150.0 mg/kg/injection, schedule: Q01DX001 (ip), vehicle: saline) was 104 % of control. The T/C (dose: 200.0 mg/kg/injection, schedule: Q04DX002 (ip), vehicle: Klucel (hydroxypropylcellulose) (HPC)) was 95 % of control and the T/C (dose: 300.0 mg/kg/injection, schedule: Q01DX001 (ip), vehicle: saline) was 103 % of control.

For `COc1ccc2c(c1OC)C1C3CC=CC3C2C2=[N+]1CCc1cc3c(cc12)OCO3` (centres undefined), the T/C (dose: 1.56 mg/kg/injection, schedule: Q01DX009 (ip), vehicle: saline) was 102 % of control, the T/C (dose: 3.12 mg/kg/injection, schedule: Q01DX009 (ip), vehicle: saline) was 93 % of control and the T/C (dose: 6.25 mg/kg/injection, schedule: Q01DX009 (ip), vehicle: saline) was 98 % of control. For the same molecule, the T/C (dose: 12.5 mg/kg/injection, schedule: Q01DX009 (ip), vehicle: saline) was 113 % of control.

With `CCCCCCCCCC(Br)C(C)(C)COO` (centres undefined) the T/C (dose: 50.0 mg/kg/injection, schedule: Q01DX001 (ip), vehicle: water) was 97 % of control, the T/C (dose: 100.0 mg/kg/injection, schedule: Q01DX001 (ip), vehicle: water) was 101 % of control and the T/C (dose: 200.0 mg/kg/injection, schedule: Q01DX001 (ip), vehicle: water) was 102 % of control.

In the case of `O=C1OC(COCC#Cc2ccccc2)CN1c1ccccc1` (centres undefined), the T/C (dose: 100.0 mg/kg/injection, schedule: Q01DX009 (ip), vehicle: saline with Tween-80) is reported as 105 % of control, the T/C [1] is reported as 95 % of control and the T/C (dose: 200.0 mg/kg/injection, schedule: Q01DX009 (ip), vehicle: saline with Tween-80) is reported as 106 % of control. The T/C [2] was 101 % of control, the T/C (dose: 400.0 mg/kg/injection, schedule: Q01DX009 (ip), vehicle: saline with Tween-80) was 103 % of control and the T/C [3] was 100 % of control.

With `COc1cc2ccc3c4ccccc4c[n+](C)c3c2cc1OC` the T/C (dose: 18.75 mg/kg/injection, schedule: Q01DX001 (ip), vehicle: saline with Tween-80) was 106 % of control, the T/C (dose: 37.5 mg/kg/injection, schedule: Q01DX001 (ip), vehicle: saline with Tween-80) was 106 % of control and the T/C (dose: 75.0 mg/kg/injection, schedule: Q01DX001 (ip), vehicle: saline with Tween-80) was 113 % of control.

For `CCNC(=O)CS(=O)(=O)c1ccc(C)cc1`, the T/C [1] was 101 % of control, the T/C [2] was 94 % of control and the T/C [3] was 97 % of control.

`CCCCC(CC)COC(=O)CC(O)C(=O)OCC(CC)CCCC` (centres undefined) was tested, and the T/C [4] was 103 % of control, the T/C [5] was 100 % of control and the T/C (dose: 400.0 mg/kg/injection, schedule: Q01DX009 (ip), vehicle: Klucel (hydroxypropylcellulose) (HPC)) was 103 % of control.

`CC(Cl)CNC(=O)N(CC(C)Cl)N=O` (centres undefined) was tested, and the T/C (dose: 8.0 mg/kg/injection, schedule: Q01DX001 (ip), vehicle: carboxymethylcellulose (CMC)) was 108 % of control, the T/C (dose: 16.0 mg/kg/injection, schedule: Q01DX001 (ip), vehicle: carboxymethylcellulose (CMC)) was 101 % of control and the T/C (dose: 31.0 mg/kg/injection, schedule: Q01DX001 (ip), vehicle: carboxymethylcellulose (CMC)) was 97 % of control. The T/C (dose: 62.0 mg/kg/injection, schedule: Q01DX001 (ip), vehicle: carboxymethylcellulose (CMC)) was 100 % of control, the T/C (dose: 125.0 mg/kg/injection, schedule: Q01DX001 (ip), vehicle: carboxymethylcellulose (CMC)) was 97 % of control and the T/C (dose: 250.0 mg/kg/injection, schedule: Q01DX001 (ip), vehicle: carboxymethylcellulose (CMC)) was 101 % of control. For the same molecule, the T/C (dose: 375.0 mg/kg/injection, schedule: Q01DX001 (ip), vehicle: carboxymethylcellulose (CMC)) was 103 % of control, the T/C (dose: 500.0 mg/kg/injection, schedule: Q01DX001 (ip), vehicle: carboxymethylcellulose (CMC)) was 122 % of control and the T/C (dose: 750.0 mg/kg/injection, schedule: Q01DX001 (ip), vehicle: carboxymethylcellulose (CMC)) was 197 % of control. For the same molecule, the T/C (dose: 1000.0 mg/kg/injection, schedule: Q01DX001 (ip), vehicle: carboxymethylcellulose (CMC)) was 240 % of control.

With `c1ccc2c(c1)CCc1ccccc1C2NC1=NCCO1` the T/C (dose: 12.5 mg/kg/injection, schedule: Q01DX009 (ip), vehicle: saline with Tween-80) was 94 % of control, the T/C (dose: 12.5 mg/kg/injection, schedule: Q04DX003 (ip), vehicle: saline with Tween-80) was 97 % of control and the T/C (dose: 25.0 mg/kg/injection, schedule: Q01DX009 (ip), vehicle: saline with Tween-80) was 89 % of control. For the same molecule, the T/C (dose: 25.0 mg/kg/injection, schedule: Q04DX003 (ip), vehicle: saline with Tween-80) was 100 % of control, the T/C (dose: 50.0 mg/kg/injection, schedule: Q01DX009 (ip), vehicle: saline with Tween-80) was 93 % of control and the T/C (dose: 50.0 mg/kg/injection, schedule: Q04DX003 (ip), vehicle: saline with Tween-80) was 93 % of control.

`O=C1CNCSC1` was tested, and the T/C [6] was 102 % of control, the T/C [7] was 115 % of control and the T/C [8] was 94 % of control.

With `C[C@]12CC[C@H]3[C@@H](CC=C4C[C@@H](O)CC[C@@]43C)[C@@H]1CC[C@@H]2N` the T/C (dose: 100.0 mg/kg/injection, schedule: Q01DX001 (sc), vehicle: steriod suspending solution) was 98 % of control, the T/C (dose: 100.0 mg/kg/injection, schedule: Q04DX002 (ip), vehicle: saline with Tween-80) was 105 % of control and the T/C (dose: 200.0 mg/kg/injection, schedule: Q01DX001 (sc), vehicle: steriod suspending solution) was 101 % of control. For the same molecule, the T/C (dose: 200.0 mg/kg/injection, schedule: Q04DX002 (ip), vehicle: saline with Tween-80) was 112 % of control, the T/C (dose: 400.0 mg/kg/injection, schedule: Q01DX001 (sc), vehicle: steriod suspending solution) was 101 % of control and the T/C (dose: 400.0 mg/kg/injection, schedule: Q04DX002 (ip), vehicle: saline with Tween-80) was 118 % of control.

In the case of `CCCCCCC(C)OC(=O)CCCc1ccc(N(CCCl)CCCl)cc1` (centres undefined), the T/C (dose: 50.0 mg/kg/injection, schedule: Q01DX009 (ip), vehicle: saline) is reported as 122 % of control, the T/C [9] is reported as 116 % of control and the T/C [10] is reported as 100 % of control.

For `O=C(O)CC1CCC(NC(=O)NCCCl)CC1` (centres undefined), the T/C (dose: 100.0 mg/kg/injection, schedule: Q01DX001 (ip), vehicle: saline with Tween-80) was 105 % of control and the T/C (dose: 200.0 mg/kg/injection, schedule: Q01DX001 (ip), vehicle: saline with Tween-80) was 102 % of control.

`c1ccc2c(c1)ccc1ccc[s+]c12` was tested, and the T/C (dose: 50.0 mg/kg/injection, schedule: Q01DX009 (ip), vehicle: Klucel (hydroxypropylcellulose) (HPC)) was 95 % of control, the T/C (dose: 50.0 mg/kg/injection, schedule: Q04DX003 (ip), vehicle: Klucel (hydroxypropylcellulose) (HPC)) was 108 % of control and the T/C (dose: 100.0 mg/kg/injection, schedule: Q01DX001 (ip), vehicle: acetone) was 103 % of control. For the same molecule, the T/C [4] was 94 % of control, the T/C (dose: 100.0 mg/kg/injection, schedule: Q04DX003 (ip), vehicle: Klucel (hydroxypropylcellulose) (HPC)) was 104 % of control and the T/C (dose: 200.0 mg/kg/injection, schedule: Q01DX001 (ip), vehicle: acetone) was 103 % of control. For the same molecule, the T/C [5] was 97 % of control, the T/C (dose: 200.0 mg/kg/injection, schedule: Q04DX003 (ip), vehicle: Klucel (hydroxypropylcellulose) (HPC)) was 104 % of control and the T/C (dose: 400.0 mg/kg/injection, schedule: Q01DX001 (ip), vehicle: acetone) was 106 % of control.

For `CC(=O)NC(CO)C(O)C(O)C(O)CO` (centres undefined), the T/C [6] was 101 % of control and 89 % of control, the T/C [7] was 93 % of control and 104 % of control and the T/C [8] was 93 % of control. For the same molecule, the T/C (dose: 800.0 mg/kg/injection, schedule: Q04DX002 (ip), vehicle: saline) was 93 % of control.

With `CCOC(=O)c1ccc(=O)n(C)c1` the T/C [9] was 102 % of control, the T/C (dose: 200.0 mg/kg/injection, schedule: Q01DX009 (ip), vehicle: saline) was 96 % of control and the T/C [10] was 98 % of control.

With `C1CCC(C2CCCC[N-]2)[N-]C1.C1CCC(C2CCCC[N-]2)[N-]C1.C1CCC(C2CCCC[N-]2)[N-]C1.[Fe+6]` (centres undefined) the T/C (dose: 10.0 mg/kg/injection, schedule: Q01DX001 (ip), vehicle: saline) was 98 % of control and the T/C (dose: 20.0 mg/kg/injection, schedule: Q01DX001 (ip), vehicle: saline) was 104 % of control.

In the case of `Nc1ccc(/C=C\C2(CCl)OCCO2)cc1`, the T/C (dose: 50.0 mg/kg/injection, schedule: Q01DX001 (ip), vehicle: saline) is reported as 100 % of control, the T/C (dose: 100.0 mg/kg/injection, schedule: Q01DX001 (ip), vehicle: saline) is reported as 97 % of control and the T/C (dose: 200.0 mg/kg/injection, schedule: Q01DX001 (ip), vehicle: saline) is reported as 103 % of control. The T/C (dose: 400.0 mg/kg/injection, schedule: Q01DX001 (ip), vehicle: saline) was 94 % of control.
